Reference: patent publication US5177082A, “Huperzines and analogs” (priority 1990, dated 1993)
Where “and” joins values, the source holds several entries; their conditions need not be identical. Equal values may be shown once. Entries after “also recorded” stand apart in the source; their conditions may differ.

What was measured:
myasthenia gravis = experiment: Clinical curative effects in 128 cases with myasthenia gravis; type: in vivo, human
Procedure: 128 patients with correctly diagnosed myasthenia gravis were used in the trial.
(§1) Patients affected with myasthenia gravis (MG) with typical clinical symptoms which improved after using neostigmine were the subjects for testing and verification. […] It was generally used for at least ten days and each dosage was 0.4-0.5 mg. […] The injections were all given in the morning and on the morning prior to the injections anticholinesterase drugs were discontinued. Neither the patients nor the doctors knew which drug was being injected. Later, the symptoms, the duration of the improvements, if any, which were obtained by the drugs and the side effects were recorded. Based on these factors, the relative merits of the two drugs were established.
(+) (++) and (+++) was used as the standard for the seriousness of the symptoms, (+++) was the most serious.
1. Prolapse of eyelids: the tear width of the eye after use of the drug was measured. If there was an increase of 0.2 cm above that before use of the drug, then the effect was "+", if the increase was 0.4 cm then the effect was "++" and if the increase was 0.6 cm then the effect was "+++".
2. Impairment to eyeball activity: when the eyeball was basically fixed and immovable then it was "+++", those who had reoccuring major complaints and basically normal activities were "+" and those in an intermediate state were "++".
3. Difficulties in swallowing: when swallowing was still possible but there was a feeling of difficulty or there was slowing of the speed of the intake of food then the patient was treated as "+"; when the patient could swallow but it was very slow then the patient was "++"; when the patient was basically unable to swallow the rating was "+++".
4. Systemic myasthenia: patients who were able to walk but felt very exhausted were "+"; patients who were able to stand up and walk with difficulty a short distance in the ward or corridor were "++"; and patients who could not get out of bed were "+++".

patients = experiment: Clinical side effects in patients with myasthenia gravis; type: in vivo, human
Procedure: as §1

Mice = details: mouse, in vivo
dogs = experiment: Subacute toxicity in dogs; type: in vivo, dog
Excerpt: Rabbits and dogs: there were 20 rabbits divided into four groups. […] The control group was given im injections of distilled water. […] When the time arrived, the rabbits and dogs were dissected. The routine blood tests glutamic-pyruvic transaminase, zinc turbidity, urea nitrogen and creatinine were all normal. […] The stimulation of the latter was even more outstanding.

[1] = test system: Sciatic Nerve/Tibialis Muscle Preparation; experiment: Anesthetized rabbit sciatic nerve/tibialis muscle preparation; type: in vivo; details: rabbits
Procedure: Anesthesized Rat and Rabbit Sciatic Nerve/Tibialis Muscle Preparation
Anesthesia was produced in rats by ip injections of 30 mg/kg of pentobarbital and in rabbits by iv injections of 1 g/kg of urethane. Electric stimulation of the periphery of the sciatic nerve (5-10 V, 0.5 ms, 1 c/10 s) caused tibialis contraction which was recorded on smoked paper.

For `C/C=C1\[C@H]2C=C(C)C[C@]1(N)c1ccc(=O)[nH]c1C2` [Huperzine A, (5R, 9R, 11E)-5-amino-11-ethylidene-5,6,9,10-tetrahydro-7-methyl-5,9-methanocycloocta[b]pyridin-2(1H)-one], the “initial effect within 15-30 minutes, %” value (myasthenia gravis; 127 cases) was 85.03%, the “initial effect within 15-30 minutes, No. of Cases” value (myasthenia gravis; 127 cases) was 108 cases and the “optimal curative effect within 45-60 minutes, %” value (myasthenia gravis; 127 cases) was 51.18%. The “optimal curative effect within 45-60 minutes, No. of Cases” value (myasthenia gravis; 127 cases) was 65 cases, the “time of maximal effect, longest” value (myasthenia gravis; 127 cases) was 240 min and the “time of maximal effect, shortest” value (myasthenia gravis; 127 cases) was 18 min. For the same compound, the “initial effect time, average” value (myasthenia gravis; X ± SD, 127 cases) was 21.92 ± 19.56 min and 21.92 min, the “time of maximal effect, average” value (myasthenia gravis; X ± SD, 127 cases) was 50.34 ± 25.65 min and 50.34 min and the “average action time among the 40 cases” value (myasthenia gravis; cases exceeding 6 hours) was 10.42 ± 5.80 h. The “longest action time among the 40 cases” value (myasthenia gravis; cases exceeding 6 hours) was 24 h, the “shortest action time among the 40 cases” value (myasthenia gravis; cases exceeding 6 hours) was 6 h and the “sustaining time of effect, shortest” value (myasthenia gravis; eye muscle type) was 0.66 h. The “action time exceeded 6 hours, %” value (myasthenia gravis; human, in vivo) was 31.64%, the “action time exceeded 6 hours, cases” value (myasthenia gravis; human, in vivo) was 40 cases and the “action time reached 4-6 hours, %” value (myasthenia gravis; human, in vivo) was 34.64%. For the same compound, the “action time reached 4-6 hours, cases” value (myasthenia gravis; human, in vivo) was 44 cases, the average action time (myasthenia gravis; human, in vivo) was 5.94 ± 4.92 h and the “cases with marked effects” value (myasthenia gravis; human, in vivo) was 71 cases. The “cases with marked effects, %” value (myasthenia gravis; human, in vivo) was 55.46%, the “initial effect time, longest” value (myasthenia gravis; im injection) was 222 min and the “physical symptom initial improvement time, longest” value (myasthenia gravis; im injection) was 3.7 h. For the same compound, the “physical symptom initial improvement time, shortest” value (myasthenia gravis; im injection) was 10 min, the “effect on myasthenia gravis condition” value (myasthenia gravis; im injection, 0.4 mg) was “effective anticholinesterase drug for treating myasthenia gravis; also recorded: able to definitely improve the myasthenia gravis condition” and the cases rated effective (myasthenia gravis; not marked) was 56 cases. For the same compound, the “cases rated effective, %” value (myasthenia gravis; not marked) was 43.75%, the “cases for which drug was effective” value (myasthenia gravis; of 128) was 127 cases and the “cases for which drug was effective, %” value (myasthenia gravis; of 128) was 99.21%. For the same compound, the “sustaining time of effect, longest” value (myasthenia gravis; systemic and eye muscle type) was 24 h, the nausea vs neostigmine (patients; X^2 =15, P<0.001) was “more apt to cause nausea than was neostigmine” and the “Abdominal pains, %” value (patients; control group) was 5.9%. The “Abdominal pains, number of times” value (patients; control group) was 21, the “Blurred vision, %” value (patients; control group) was 3.2% and the “Blurred vision, number of times” value (patients; control group) was 11. For the same compound, the “Changes in the rhythm of the heart, %” value (patients; control group) was 3.1%, the “Changes in the rhythm of the heart, number of times” value (patients; control group) was 11 and the “Disturbed sleep, %” value (patients; control group) was 0.8%. For the same compound, the “Disturbed sleep, number of times” value (patients; control group) was 3, the “Dizziness, %” value (patients; control group) was 20.3% and the “Dizziness, number of times” value (patients; control group) was 72. For the same compound, the “Drooling, %” value (patients; control group) was 3.5%, the “Drooling, number of times” value (patients; control group) was 9 and the “Increase in the number of bowel movements, %” value (patients; control group) was 2.8%. The “Increase in the number of bowel movements, number of times” value (patients; control group) was 10, the “Muscle bundle quivering, %” value (patients; control group) was 10.4% and the “Muscle bundle quivering, number of times” value (patients; control group) was 37. For the same compound, the “Myosis, %” value (patients; control group) was 3.0%, the “Myosis, number of times” value (patients; control group) was 13 and the “Nausea, %” value (patients; control group) was 12.9%. For the same compound, the “Nausea, number of times” value (patients; control group) was 46, the “Perspiring, %” value (patients; control group) was 7.0% and the “Perspiring, number of times” value (patients; control group) was 25. For the same compound, the “Tinnitus, %” value (patients; control group) was 3.7%, the “Tinnitus, number of times” value (patients; control group) was 13 and the “Vomiting, %” value (patients; control group) was 2.8%. The “Vomiting, number of times” value (patients; control group) was 10, the “cases with side effects” value (patients; control patients, 69 cases) was 45 cases and the “cases with side effects, %” value (patients; control patients, 69 cases, X^2 =3.58, P>0.05) was 65.21%. For the same compound, the “side effects other than nausea vs neostigmine” value (patients; muscle bundle quivering, dizziness, perspiring, blurred vision) was “lower side effects for each of the other items than neostigmine; also recorded: statistically lower than neostigmine; also recorded: lower side effects in all other areas than neostigmine”, the “Abdominal pains, %” value (patients; noncontrol group, 128 cases) was 6.5% and the “Abdominal pains, number of times” value (patients; noncontrol group, 128 cases) was 80. The “Blurred vision, %” value (patients; noncontrol group, 128 cases) was 1.8%, the “Blurred vision, number of times” value (patients; noncontrol group, 128 cases) was 22 and the “Changes in the rhythm of the heart, %” value (patients; noncontrol group, 128 cases) was 1.0%. The “Changes in the rhythm of the heart, number of times” value (patients; noncontrol group, 128 cases) was 13, the “Disturbed sleep, %” value (patients; noncontrol group, 128 cases) was 0.4% and the “Disturbed sleep, number of times” value (patients; noncontrol group, 128 cases) was 5. The “Dizziness, %” value (patients; noncontrol group, 128 cases) was 8.1%, the “Dizziness, number of times” value (patients; noncontrol group, 128 cases) was 100 and the “Drooling, %” value (patients; noncontrol group, 128 cases) was 2.0%. The “Drooling, number of times” value (patients; noncontrol group, 128 cases) was 25, the “Increase in the number of bowel movements, %” value (patients; noncontrol group, 128 cases) was 0.5% and the “Increase in the number of bowel movements, number of times” value (patients; noncontrol group, 128 cases) was 11. The “Muscle bundle quivering, %” value (patients; noncontrol group, 128 cases) was 4.0%, the “Myosis, %” value (patients; noncontrol group, 128 cases) was 1.0% and the “Myosis, number of times” value (patients; noncontrol group, 128 cases) was 13. For the same compound, the “Nausea, %” value (patients; noncontrol group, 128 cases) was 7.8%, the “Nausea, number of times” value (patients; noncontrol group, 128 cases) was 95 and the “Perspiring, %” value (patients; noncontrol group, 128 cases) was 4.8%. The “Perspiring, number of times” value (patients; noncontrol group, 128 cases) was 59, the “Tinnitus, %” value (patients; noncontrol group, 128 cases) was 3.1% and the “Tinnitus, number of times” value (patients; noncontrol group, 128 cases) was 38. The “Vomiting, %” value (patients; noncontrol group, 128 cases) was 1.2%, the “Vomiting, number of times” value (patients; noncontrol group, 128 cases) was 15 and the “Toxic Strength” value (Mice) was 1.00. For the same compound, the “symptoms after single toxic dose” value (Mice) was “typical symptoms of cholinesterase inhibitor poisoning, such as whole body muscle fiber twitching, drooling, tears, increase bronchial secretions and incontinence of feces and urine”, the “microscopic examination, heart” value (dogs; dogs) was “light fat infiltration” and the “routine blood tests, glutamic-pyruvic transaminase, zinc turbidity, urea nitrogen and creatinine” value (dogs; dogs) was “all normal”. For the same compound, the symptoms (dogs; dogs, 0.6 mg/kg im, 180 days) was “noticeable whole body muscle fiber twitching”, the ECG (dogs; dogs, im 180 days) was “no drug induced abnormalities” and the “pathological changes of internal organs” value (dogs; dogs, six months, 90 times (MG) / 750 times (senile dementia) clinical dosage) was “no noticeable pathological changes of internal organs were observed”. For the same compound, the abnormalities (dogs; dogs, small dosages (0.3 mg/kg im), 180 days) was “No abnormalities were observed”, the “microscopic examination, cerebral cortex” value (dogs; each dosage group of dogs) was “cerebral spongiocyte growth and myophagia” and the minimal effective dose ([1]; Oryctolagus cuniculus, iv, read-out: Lowest Effective Dosage for Enhancing Muscle Contraction) was 0.03 mg/kg. The “Strength of Effect” value ([1]; galanthamine = 1.0) was 16.6, the “effect on electrically stimulated muscle contraction” value ([1]; iv (Huperzine A 30 μg/kg)) was “enhancement of the amplitude of the electrically stimulated muscle contraction” and the “Strength of Effect” value ([1]; physostigmine = 1.0) was 4.
